In patent US10428013B2, “Amide compound, preparation method and uses thereof” (Shanghai Institute of Phamaceutical Industry, priority 2011, dated 2019):

Legend:
[1] = tested on: Hyperlipemia Model of SD Rat; experiment: Screening in the hyperlipemia model of SD rat (fat emulsion by gavage; serum lipids); assay type: in vivo; settings: hyperlipemia SD rats, dosed 21 days, X ± SD
Description: Materials and Methods for Screening with the Compounds Prepared in Experiment 1 to 21 in the Hyperlipemia Model of SD Rat
SD rats, male, 150-180 g, supplied by Shanghai Slaccas Laboratory Animal Company Limited.
Preparation of fat emulsion: 500 g lard oil was weighed and placed into a vessel, heated for melting, and upon heating up to the temperature of 100° C., 200 g cholesterol was added and fully dissolved, then 20 g propylthiouracil was added. After full stirring and dissolving, 500 ml Tween 80 was added to give an oil phase. Meanwhile, 600 ml distilled water and 400 ml 1,2-propylene glycol were heated to 60° C. in water bath, and then 40 g sodium deoxycholate was added with stirring, until full dissolution, to give an aqueous phase. The aqueous phase was added into the oil phase and fully and uniformly mixed, to prepare the fat emulsion.
Formulation of the solution for the compounds: an appropriate amount of compounds was triturated with appropriate amount of Tween 80 for homogeneous dispersion, and then sufficient CMC-Na solution was added and fully triturated, suspended to give the solution for the compounds.
The animals were fed for acclimation for 3 days, with 8 animals as blank control (Control) according to weight, and the rest was subject to intragastric administration of fat emulsion at 1 ml/100 g weight at A.M. 9:00-11:00 daily for continuous 2 weeks; the animals were fasted for 12 hours, and had 1 ml blood sampled at orbital cavity, which was measured with the Hitachi Automatic Biochemical Analyzer 7080 for serum cholesterol (CHO), triglyceride (TO), low-density lipoprotein (LDL-C) and high-density lipoprotein (HDL-C), with the animals having CHO of 4-7 mmol/L for experiment.
The animals dosed with fat emulsion for 2 weeks were divided into model group (Model), simvastatin group (Sim, 10 mg/kg) and compound group (40 mg/kg) according to weight, and continued to receive intragastric administration with fat emulsion; at the same time, the dosed group was administered with respective amount of drug, and the model group was administered with equal volume of solvent. Fat emulsion was dosed by gavage at A.M., and drug was dosed at P.M. The animals were weighed at Monday, and were observed. The animals were dosed for continuous 21 days, and fasted for 12 hours, with 1 ml blood sampling at orbital cavity. The liver was exposed and observed for pathologic condition; after slicing and weighing, it was fixed into the 4% formaldehyde solution for pathologic examination.
The Hitachi Automatic Biochemical Analyzer 7080 was used to measure serum cholesterol (CHO), triglyceride (TG), low-density lipoprotein (LDL-C) and high-density lipoprotein (HDL-C).
Laboratory data were expressed as X±SD (Standard Deviation), and comparison between groups was carried out by t-testing.

[2] = tested on: Cholelithiasis Model of Golden Hamster; experiment: Screening in the cholelithiasis model of golden hamster (biochemical measurement of bile); assay type: in vivo, golden hamsters; settings: dosed 45 days, X ± SD
Description: Screening with the Compounds Prepared in Experiment 1 to 21 in the Cholelithiasis Model of Golden Hamster
68 male golden hamsters, 50-60 g, supplied by Shanghai Slaccas Laboratory Animal Company Limited.
The animals were fed for acclimation for 3 days, with 8 animals as blank control (Control) according to weight. The control was dosed with normal rat feedstuff, and the rest was dosed with feedstuff leading to cholelithiasis (sucrose 32.1%, cheese 64.2%, cholesterol 0.2%, salt 3%, vitamin B1 […], concentrated fish liver oil 0.4%). The animals were fed for acclimation for another 7 days, and divided into model group (Model), simvastatin group (Sim, 10 mg/kg), Ursodesoxycholic acid group (UDCA, 40 mg/kg), and compound group, n=6/group.
[…] 2:00-3:00 daily. The animals were weighed at Monday, and observed for hair color, stool, and variation of activation level.
The animals were dosed for continuous 45 days and then fasted for 12 hours; were anesthetized with 30 mg/kg sodium secobarbital via intraperitoneal injection; had 1 ml blood sampled via abdominal aorta; had gallbladder exposed, with an orifice on the gallbladder being clamped by the ophthalmological pliers and bile in the gallbladder being sucked with 1 ml syringe.
The Hitachi Automatic Biochemical Analyzer 7080 was used to measure cholesterol (CHO), total total bilirubin (TBIL), total bile acid (TBA) and total protein (TP) in bile.
Laboratory data was expressed as X±SD, and comparison of measurement data between groups was carried out by t-testing, with non-parametric testing for enumeration data.

Mice = experiment: Testing for acute toxicity in mice; assay type: in vivo; settings: orally by gavage, 5 g/kg, observation 14 days
Description: Testing for Acute Toxicity in Mice
The compounds was dissolved into an appropriate amount of Tween-80, and suspended and dispersed uniformly into a given amount of CMC-Na solution, which was administered orally and by gavage at a dose of 5 g/kg, with no toxicity associated with administration being observed, and no death of animals occurred during observation of continuous 14 days. From the results, the sample Compound 01, Compound 02, Compound 03, Compound 04, Compound 05, Compound 06, Compound 07, Compound 08, Compound 09, Compound 10, Compound 11, Compound 12, Compound 13, Compound 14, Compound 15, Compound 16, Compound 17, Compound 18, Compound 19, Compound 20 and Compound 21 were safe.

| Structure (SMILES) | CHO1 Concentration (serum cholesterol) ([1]; 10 mg/kg) [mmol/L] | HDL-C Concentration (serum high-density lipoprotein) ([1]; 10 mg/kg) [mmol/L] | LDL-C Concentration (serum low-density lipoprotein) ([1]; 10 mg/kg) [mmol/L] | TG Concentration (serum triglyceride) ([1]; 10 mg/kg) [mmol/L] | Cholesterol (CHO) in bile ([2]; 10 mg/kg) [mmol/L] | Total bile acid (TBA) in bile ([2]; 10 mg/kg) [mmol/L] | Total protein (TP) in bile ([2]; 10 mg/kg) [g/L] | Total total bilirubin (TBIL) in bile ([2]; 10 mg/kg) [µmol/L] | CHO1 Concentration (serum cholesterol) ([1]; 40 mg/kg) [mmol/L] | HDL-C Concentration (serum high-density lipoprotein) ([1]; 40 mg/kg) [mmol/L] | LDL-C Concentration (serum low-density lipoprotein) ([1]; 40 mg/kg) [mmol/L] | TG Concentration (serum triglyceride) ([1]; 40 mg/kg) [mmol/L] | Acute toxicity, overall result (Mice) | Cholesterol (CHO) in bile ([2]; 40 mg/kg) [mmol/L] | Total bile acid (TBA) in bile ([2]; 40 mg/kg) [mmol/L] | Total protein (TP) in bile ([2]; 40 mg/kg) [g/L] | Total total bilirubin (TBIL) in bile ([2]; 40 mg/kg) [µmol/L] |
| --- | --- | --- | --- | --- | --- | --- | --- | --- | --- | --- | --- | --- | --- | --- | --- | --- | --- |
| CCC(C)(C)C(=O)O[C@H]1C[C@@H](C)C=C2C=C[C@H](C)[C@H](CC[C@@H]3C[C@@H](O)CC(=O)O3)[C@H]21 [Simvastatin, reference compound] | 12.52 ± 1.34 | 1.52 ± 0.32 | 11.92 ± 1.44 | 1.41 ± 0.16 | 1.07 ± 0.63 | 7.68 ± 3.31 | 35.52 ± 18.04 | 79.2 ± 34.2 |  |  |  |  |  |  |  |  |  |
| Cc1ccc(C)c(OCCCC(C)(C)C(=O)NCC(=O)c2ccc(CO)cc2)c1 [Compound 21] |  |  |  |  |  |  |  |  | 14.42 ± 2.75 | 1.69 ± 0.26 | 12.15 ± 3.12 | 2.00 ± 0.52 | safe |  |  |  |  |
| CCC(CCCOc1cc(C)ccc1C)C(=O)N(C)CC(=O)c1cc(C)cc(O)c1 (stereo not drawn) [Compound 16] |  |  |  |  |  |  |  |  | 9.48 ± 1.27 | 1.32 ± 0.39 | 7.13 ± 1.52 | 0.78 ± 0.25 |  | 0.97 ± 0.62 | 19.74 ± 12.14 | 40.70 ± 26.17 | 55.0 ± 29.38 |
